Test results: US20070270421A1, “Novel pyridine Derivative and Pyrimidine Derivative (1)” (priority 2004, published 2007)

Molecular target: T1, HGFR (His6-HGFR cytoplasmic domain) (Homo sapiens, UniProt P08581)
T1 construct: made in house; host or cells: Spodoptera frugiperda Sf9 insect cells (baculovirus, pFastBac-HT)
Experiment: Inhibitory activity against HGFR tyrosine kinase activity (HTRF)
Type: biochemical
Settings: biotin-poly(GT), ATP, 30° C. 10 min, read-out: IC50 (concentration necessary to inhibit HGFR kinase activity by 50%)
Description: The cytoplasmic domain of HGFR (Genbank Accession No. J02958) is a 1.3 kb DNA fragment beginning with Lys974 and including a stop codon, and described by Park et al. (Proc. Natl. Acad. Sci. U.S.A. 84(18), 6379-6383, 1987). The DNA fragment was isolated from the human placental cDNA library (purchased from Clontech) by PCR (TaKaRa Ex Taq™ Kit, purchased from TaKaRa) using two kinds of primers (SEQ ID NO: 1, 5′-[…]-3′ and SEQ ID NO: 2, 5′-[…]-3′, purchased from Invitrogen). The DNA fragment was cloned into a baculovirus transplace vector (pFastBac™-HT (purchased from GIBCO BRL)) to produce a recombinant construct. The construct was transfected into insect cells (Spodoptera frugiperda 9 (Sf9)) to produce a solution of HGFR transfected baculovirus (preparation of a recombinant baculovirus can be found in the standard text (Bac-to-Bac Baculovirus Expression System (GIBCO BRL)). The cloning of the other receptor tyrosine kinases and preparation of the recombinant baculovirus solutions were performed using a cytoplasmic fragment starting from Lys791 (VEGFR2, Genbank Accession No. L04947), a cytoplasmic fragment starting from Lys398 (FGFR1, Genbank Accession No. X52833) and a cytoplasmic fragment starting from Lys558 (PDGFRβ, Genbank Accession No. M21616) in stead of HGFR in the above method. EGFR was purchased from Sigma (Production No. E-2645).
To the suspension of Sf9 cells (3×10^8 cells) in SF-900II medium (purchased from Invitrogen) containing 2% FBS was added a solution of HGFR transfected baculovirus above (4 ml), followed by a shaking culture at 27° C. for 48 hrs. The cells infected with the HGFR transfected baculovirus were centrifuged at 1,000 rpm, 4° C. for 5 min to remove the supernatant. The precipitated infected cells were suspended in 80 ml of ice-cold PBS, and centrifuged at 1,000 rpm, 4° C. for 5 min to remove the supernatant. The precipitated infected cells were suspended in 40 ml of ice-cold Lysis Buffer (50 mM Tris-HCl (pH 8.5), 5 mM 2-mercaptoethanol, 100 mM KCl, 1 mM PMSF and 1% (v/v) NP-40). The suspension was centrifuged at 12,000 rpm, 4° C. for 30 min to provide a supernatant.
The supernatant was loaded onto an Ni-NTA agarose column (3 ml, purchased from Qiagen) equilibrated with 30 ml of Buffer A (20 mM Tris-HCl (pH 8.5), 5 mM 2-mercaptoethanol, 500 mM KCl, 20 mM imidazole and 10% (v/v) glycerol). The column was washed with 30 ml of Buffer A, 6 ml of Buffer B (20 mM Tris-HCl (pH 8.5), 5 mM 2-mercaptoethanol, 1 M KCl, and 10% (v/v) glycerol) and 6 ml of Buffer A in this order. Then, the column was eluted with 6 ml of Buffer C (20 mM Tris-HCl (pH 8.5), 5 mM 2-mercaptoethanol, 100 mM KCl, 100 mM imidazole, and 10% (v/v) glycerol) to provide a fraction. The fraction was entrapped in a dialysis membrane (purchased from Spectrum Laboratories), dialyzed at 4° C. overnight with 1 L of dialysis buffer (20 mM Tris-HCl (pH 7.5), 10% (v/v) glycerol, 1 mM dithiothreitol, 0.1 mM Na3VO4 and 0.1 mM EGTA), and stored at −80° C. until used. An aliquot of the dialyzed fraction was subjected to SDS electrophoresis, and then a recombinant protein (His6-HGFR, the HGFR cytoplasmic domain fused with six histidine at the N terminus) detected at a molecular weight of about 60 kDa when stained with Coomassie Brilliant Blue, was determined with regard to protein content using BSA (purchased from Sigma) as a standard. The VEGFR2 cytoplasmic domain, the FGFR1 cytoplasmic domain, and the PDGFRβ cytoplasmic domain were fused with six histidine at the N terminus by the similar method to produce respective recombinant proteins (His6-VEGFR2, His6-FGFR1, and His6-PDGFRβ). […]

T1 sequence (P08581 956-1390 limits assumed): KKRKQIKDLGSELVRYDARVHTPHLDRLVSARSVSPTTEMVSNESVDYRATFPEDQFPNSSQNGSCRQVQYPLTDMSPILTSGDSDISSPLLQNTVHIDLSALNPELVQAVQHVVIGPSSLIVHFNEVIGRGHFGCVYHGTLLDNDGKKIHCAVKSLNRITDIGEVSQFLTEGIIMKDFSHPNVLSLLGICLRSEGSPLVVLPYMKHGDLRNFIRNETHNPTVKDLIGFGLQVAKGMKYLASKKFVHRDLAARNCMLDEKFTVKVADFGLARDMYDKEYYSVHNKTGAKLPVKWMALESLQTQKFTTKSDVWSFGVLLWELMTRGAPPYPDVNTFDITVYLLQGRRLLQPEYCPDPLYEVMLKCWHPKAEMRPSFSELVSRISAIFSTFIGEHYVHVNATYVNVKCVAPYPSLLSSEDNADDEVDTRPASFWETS

Structure (SMILES)	IC50
CN1CCC(N2CCN(C(=O)Nc3cc(Oc4ccc(NC(=S)NC(=O)Cc5ccc(F)cc5)cc4F)ncn3)CC2)CC1 [Example 193, 4-(2-Fluoro-4-{3-[2-(4-fluorophenyl)acetyl]thioureido}phenoxy)-6-{[4-(1-methylpiperidin-4-yl)piperazin-1-yl]carbonylamino}pyrimidine]	52 nM
CN1CC(N2CCN(C(=O)Nc3cc(Oc4ccc(NC(=S)NC(=O)Cc5ccccc5)cc4F)ccn3)CC2)C1 [Example 381]	83 nM
O=C(CC(=O)Nc1ccc(Oc2ccnc(NC(=O)N3CCOCC3)c2)cc1)Nc1ccc(F)cc1 [Example 71, N-(4-Fluorophenyl)-N′-(4-{2-[(morpholine-4-carbonyl)amino]pyridin-4-yloxy}phenyl)malonamide]	25 nM
O=C(Cc1ccccc1)NC(=S)Nc1ccc(Oc2ccnc(NC(=O)N3CCC(N4CCC4)CC3)c2)c(F)c1 [Example 39, 2-{[4-(Azetidin-1-yl)piperidin-1-yl]carbonylamino}-4-{2-fluoro-4-[3-(2-phenylacetyl)thioureido]phenoxy}pyridine]	50 nM
O=C(Cc1ccc(F)cc1)NC(=S)Nc1ccc(Oc2cc(NC(=O)N3CCCCC3)ncn2)c(F)c1 [Example 6, Piperidine-1-carboxylic acid [6-(2-fluoro-4-{3-[2-(4-fluorophenyl)acetyl]thioureido}phenoxy)pyrimidin-4-yl]amide]	60 nM
CN1CC(N2CCN(C(=O)Nc3cc(Oc4ccc(NC(=S)NC(=O)Cc5ccc(F)cc5)cc4F)ncn3)CC2)C1 [Example 196]	57 nM
CN(C)CC1CCN(C(=O)Nc2cc(Oc3ccc(NC(=O)NC(=O)Cc4ccccc4)cc3F)ccn2)CC1 [Example 342, 2-{[4-(Dimethylaminomethyl)piperidin-1-yl]carbonylamino}-4-{2-fluoro-4-[3-(2-phenylacetyl)ureido]phenoxy}pyridine]	59 nM
CCN(CC)CCCN(C)C(=O)Nc1cc(Oc2ccc(NC(=O)NC(=O)Cc3ccccc3)cc2F)ccn1 [Example 49, 1-(3-Diethylaminopropyl)-3-{4-[2-fluoro-4-(3-phenylacetylureido)phenoxy]pyridin-2-yl}-1-methylurea]	210 nM
CN(C)CCN1CCC(N(C)C(=O)Nc2cc(Oc3ccc(NC(=O)NC(=O)Cc4ccc(F)cc4)cc3)ccn2)CC1 [Example 354, 1-[1-(2-Dimethylaminoethyl)piperidin-4-yl]-3-[4-(4-{3-[2-(4-fluorophenyl)acetyl]ureido}phenoxy)pyridin-2-yl]-1-methylurea]	160 nM
O=C(Cc1ccc(F)cc1)NC(=S)Nc1ccc(Oc2ccnc(NC(=O)N3CCN(CCN4CCC4)CC3)c2)cc1 [Example 398, 4-[2-(Azetidin-1-yl)ethyl]piperazine-1-carboxylic acid [4-(4-{3-[2-(4-fluorophenyl)acetyl]thioureido}phenoxy)pyridin-2-yl]amide]	47 nM
CN1CC(N2CCC(N(C)C(=O)Nc3cc(Oc4ccc(NC(=S)NC(=O)Cc5ccccc5)cc4F)ccn3)CC2)C1 [Example 330, 3-{4-[2-Fluoro-4-(3-phenylacetylthioureido)phenoxy]pyridin-2-yl}-1-methyl-1-[1-(1-methylazetidin-3-yl)piperidin-4-yl]urea]	50 nM
CN(C)C[C@@H]1CCCN(C(=O)Nc2cc(Oc3ccc(NC(=S)NC(=O)Cc4ccccc4)cc3F)ccn2)C1 [Example 335, (3S)-3-Dimethylaminomethylpiperidine-1-carboxylic acid {4-[2-fluoro-4-(3-phenylacetylthioureido)phenoxy]pyridin-2-yl}amide]	110 nM
CN(C)CCN1CCN(C(=O)Nc2cc(Oc3ccc(NC(=S)NC(=O)Cc4ccc(F)cc4)cc3F)ncn2)CC1 [Example 181, 4-{[4-(2-Dimethylaminoethyl)piperazin-1-yl]carbonylamino}-6-(2-fluoro-4-{3-[2-(4-fluorophenyl)acetyl]thioureido}phenoxy)pyrimidine]	41 nM
CN(C)CCN1CCC(N(C)C(=O)Nc2cc(Oc3ccc(NC(=S)NC(=O)Cc4ccccc4)cc3F)ccn2)CC1 [Example 223, 1-[1-(2-Dimethylaminoethyl)piperidin-4-yl]-3-{4-[2-fluoro-4-(3-phenylacetylthioureido)phenoxy]pyridin-2-yl}-1-methylurea]	58 nM
O=C(Cc1ccccc1)NC(=O)Nc1ccc(Oc2cc(NC(=O)N3CCCC3)ncn2)c(F)c1 [Example 46, Pyrrolidine-1-carboxylic acid {6-[2-fluoro-4-(3-phenylacetylureido)phenoxy]pyrimidin-4-yl}amide]	45 nM
CN1CCN(C2CCN(C(=O)Nc3cc(Oc4ccc(NC(=O)NC(=O)Cc5ccccc5)cc4F)ccn3)CC2)CC1 [Example 340, 4-{2-Fluoro-4-[3-(2-phenylacetyl)ureido]phenoxy}-2-{[4-(1-methylpiperazin-4-yl)piperidin-1-yl]carbonylamino}pyridine]	77 nM
CN(C)CCCN1CCC(N(C)C(=O)Nc2cc(Oc3ccc(NC(=S)NC(=O)Cc4ccc(F)cc4)cc3F)ncn2)CC1 [Example 221, 1-[1-(3-Dimethylaminopropyl)piperidin-4-yl]-3-[6-(2-fluoro-4-{3-[2-(4-fluorophenyl)acetyl]thioureido}phenoxy)pyrimidin-4-yl]-1-methylurea]	170 nM
CC(=O)Nc1cc(Oc2ccc(NC(=O)CC(=O)Nc3ccc(F)cc3)c(F)c2)ccn1 [Example 74, N-(4-Fluorophenyl)-N′-[4-(2-acetylaminopyridin-4-yloxy)-2-fluorophenyl]malonamide]	33 nM
O=C(CC(=O)Nc1c(F)cccc1F)Nc1ccc(Oc2ccnc(NC(=O)N3CCCC3)c2)c(F)c1 [Example 59, N-(2,6-Difluorophenyl)-N′-(3-fluoro-4-{2-[(pyrrolidine-1-carbonyl)amino]pyridin-4-yloxy}phenyl)malonamide]	100 nM
CN(C)CCCN1CCC(N(C)C(=O)Nc2cc(Oc3ccc(NC(=S)NC(=O)Cc4ccc(F)cc4)cc3F)ccn2)CC1 [Example 225, 1-[1-(3-Dimethylaminopropyl)piperidin-4-yl]-3-[4-(2-fluoro-4-{3-[2-(4-fluorophenyl)acetyl]thioureido}phenoxy)pyridin-2-yl]-1-methylurea]	79 nM
CN1CCC(N(C)C(=O)Nc2cc(Oc3ccc(NC(=O)NC(=O)Cc4ccc(F)cc4)c(F)c3)ccn2)CC1 [Example 290, 3-[4-(3-Fluoro-4-{3-[2-(4-fluorophenyl)acetyl]ureido}phenoxy)pyridin-2-yl]-1-methyl-1-(1-methylpiperidin-4-yl)urea]	130 nM
O=C(Cc1ccccc1)NC(=O)Nc1ccc(Oc2ccnc(NC(=O)N3CCN(CCN4CCC4)CC3)c2)c(F)c1 [Example 387, 4-[2-(Azetidin-1-yl)ethyl]piperazine-1-carboxylic acid {4-[2-fluoro-4-(3-phenylacetylureido)phenoxy]pyridin-2-yl}amide]	120 nM
CN1CCN(C2CCN(C(=O)Nc3cc(Oc4ccc(NC(=S)NC(=O)Cc5ccc(F)cc5)cc4)ccn3)CC2)CC1 [Example 191, 4-(4-{3-[2-(4-Fluorophenyl)acetyl]thioureido}phenoxy)-2-{[4-(1-methylpiperazin-4-yl)piperidin-1-yl]carbonylamino}pyridine]	57 nM
